Source: US8293734B2, “Nitroimidazooxazine and nitroimidazooxazole analogues and their uses” (priority 2009, dated 2012)
pIC50: −log10 of the molar value. In brackets after ≈: the same amount, converted by molar mass.

Columns and labels:
[1] = tested on: L. donovani amastigotes (MHOM-ET-67/L82) in mouse macrophages; assay: Leishmania donovani infected macrophage assay; format: cell-based; conditions: 96 h incubation, read-out: IC50 L. donovani macro
Method: (§1) (c) Antiprotozoal screening. Compounds were evaluated for their activities against both Trypanosoma cruzi amastigotes and Leishmania donovani amastigotes (free or encapsulated in macrophages), according to the following protocols:
(iii) Leishmania donovani infected macrophage assay. Freshly harvested mouse macrophages in medium (RPMI 1640 plus 10% heat inactivated fetal calf serum) were incubated at 37° C. (5% CO2) for 24 h and then infected (1:3 macrophages to amastigotes) with an axenic L. donovani amastigote culture (MHOM-ET-67/L82) in medium (SM, pH 5.4 plus 10% heat inactivated fetal calf serum). The infected macrophages were seeded at a density of 1.2×10^6/mL (by diluting in RPMI+10% FCS) in 16-well slides (Lab-tek™) and incubated at 37° C. (5% CO2) for 24 h. The medium was removed and replaced by fresh medium (RPMI 1640+10% FCS), and this was repeated following mixing. The infected macrophages were then incubated at 37° C. (5% CO2) for 96 h in either medium alone or in the presence of serial (3-fold) dilutions of test compounds (initially prepared as 10 mg/mL stock solutions in DMSO and diluted into medium). Miltefosin was employed as a standard in each assay. […], the slides were fixed (5 min in 100% MeOH) and stained (10% Giemsa, 10 min). The ratio of infected to uninfected macrophages was determined by microscopic examination, and the IC50 values were then calculated by linear regression analysis.

[2] = tested on: Trypanosoma cruzi amastigotes (Tulahuen C2C4 strain); assay: Trypanosoma cruzi assay in infected L-6 cells; format: cell-based; conditions: L6, 96 h incubation, read-out: IC50 T. cruzi
Method: as §1
(i) Trypanosoma cruzi assay. L-6 cells (2×10^3) in medium (100 μL of RPMI 1640 supplemented with 2 mM L-glutamine plus 10% heat inactivated fetal calf serum) were seeded in 96-well microtitre plates (Costar™) and incubated at 37° C. (5% CO2) for 1d. A suspension (50 μL) of Trypanosoma cruzi trypomastigotes (5×10^3 of Tulahuen C2C4 strain, containing the β-galactosidase gene) was added, and the cells were incubated at 37° C. (5% CO2) for a further 48 h to establish the infection. The medium was removed and replaced by fresh medium and the infected cells were then incubated at 37° C. (5% CO2) for 96 h in either medium alone or in the presence of serial (3-fold) dilutions of test compounds (initially prepared as 10 mg/mL stock solutions in DMSO and diluted into medium). Benznidazole was employed as a standard in each assay. Following incubation, chlorophenol red glycoside (100 mM) in 0.1% Nonidet P40/PBS (50 μL) was added, and (after 6 h) the absorbance at 540 nm was measured and used to calculate the IC50 values.

[3] = tested on: Axenically grown L. donovani amastigotes (MHOM-ET-67/L82); assay: Axenic Leishmania donovani assay; format: cell-based; conditions: 70 h incubation, read-out: IC50 L. donovani axen
Method: as §1
(ii) Axenic Leishmania donovani assay. Axenically grown L. donovani amastigotes (MHOM-ET-67/L82) from a healthy culture in log phase were seeded at a density of 1×10^6/mL medium (SM, pH 5.4 plus 10% heat inactivated fetal calf serum) in 96-well microtitre plates (Costar™) and incubated at 37° C. (5% CO2) for 70 h in either medium alone or in the presence of serial (3-fold) dilutions of test compounds (initially prepared as 10 mg/mL stock solutions in DMSO and diluted into medium). Miltefosin was employed as a standard in each assay. After incubation, Resazurin fluorescent dye was added to each well, and incubation was continued for an additional 2 h. The IC50 values were determined from measurements of the fluorescence data.

[4] = tested on: VERO cells (CCL-81); assay: Mammalian cell cytotoxicity assay (tetrazolium dye); format: cell-based; conditions: Chlorocebus sabaeus, 72 h exposure, read-out: IC50 VERO
Method: (b) Mammalian cell cytotoxicity assay. This was assessed against VERO cells (CCL-81, American Type Culture Collection) in a 72 h exposure, using a tetrazolium dye assay (Falzari et al., 2005).

[5] = Stability to human liver microsomes; format: in vitro ADME; conditions: 1 μM compound, 60 min, 37° C., 0.5 mg/mL protein
Method: (§2) (a) Stability of the compounds to human and mouse microsomes. Test compounds (1 μM) were incubated at 37° C. with pooled human or CD-1 mouse liver microsome preparations (0.5 mg/mL final protein concentration) and an NADPH regenerating system (MgCl2, 3.3 mM; G6P, 3.3 mM; G6PD, 0.4 U/mL; NADP+, 1.3 mM) in phosphate buffer (75 mM, pH 7.4), with a final volume of 200 μL. The compounds were dissolved in DMSO such that the final DMSO concentration was 0.5%. Reactions were stopped at 0 and 60 min by the addition of MeCN (100 μL) containing 0.2 μM metoprolol as an internal standard. Samples were diluted 10× and centrifuged prior to analysis by LC-MS/MS using electrospray ionization and SRM monitoring using a gradient LC method. LC peak areas were integrated and expressed as analyte/IS peak area ratios (PAR), and a mean value for each time point was calculated from the duplicates. The percent remaining value was calculated as: % remaining=100×(Mean PART60/Mean PART0).

[6] = Stability to mouse liver microsomes; format: in vitro ADME, CD-1 mouse; conditions: 1 μM compound, 60 min, 37° C., 0.5 mg/mL protein
Method: as §2

O=[N+]([O-])c1cn2c(n1)OCC(COCc1ccc(OC(F)(F)F)cc1)C2 (stereo not shown) [Compound 72, 2-nitro-6-({[4-(trifluoromethoxy)benzyl]oxy}methyl)-6,7-dihydro-5H-imidazo[2,1-b][1,3]oxazine]
IC50 [1]: 0.55 µg/mL (≈ 1.47 µM) | IC50 [2]: 0.62 µg/mL (≈ 1.66 µM) | melting point: 92 to 93 °C | IC50 [3]: 0.089 µg/mL (≈ 0.238 µM) | pIC50 [4]: 4.34 | Microsomes (% remaining) Human [5]: 71% | Microsomes (% remaining) Mouse [6]: 41%
